Values of other authors in patent publication US20210268271A1, “SYSTEMS AND METHODS FOR VISCERAL NEUROMODULATION” (priority 2018, published 2021).

Assays:
[1] = test system: TRPV1 expressing cardiac nerve endings; conditions: in vivo

| SMILES | duration of block (deep cardiac plexus) | further results |
| --- | --- | --- |
| C[C@H](CCCC(C)(C)O)[C@H]1CC[C@H]2[C@@H]3CC=C4C[C@@H](O)CC[C@]4(C)[C@H]3CC[C@]12C [25-OH-cholesterol] | – | relative potency among cholesterol oxides (sympathetic ganglia): most potent |
| CCCCN1CCCCC1C(=O)Nc1c(C)cccc1C (stereo not shown) [bupivacaine] | approximately 2 hours | – |
| C=C(C)[C@]12C[C@@H](C)[C@@]34O[C@](Cc5ccccc5)(O[C@@H]1[C@@H]3C=C(COC(=O)Cc1ccc(O)c(OC)c1)C[C@]1(O)C(=O)C(C)=C[C@@H]41)O2 [RTX, resiniferatoxin] | – | duration of complete ablation of TRPV1 expressing cardiac nerve endings [1]: over 10 weeks |
| CCN(CC)CC(=O)Nc1c(C)cccc1C [lidocaine] | approximately 2 hours | – |
